Source: patent US10752612B2, “PLK4 inhibitors” (LUDWIG INSTITUTE FOR CANCER RESEARCH LTD, priority 2015, dated 2020)

Target: T1, human Plk4 kinase domain (aa 2-275) (Homo sapiens, UniProt O00444)
T1 construct: purified 6×His-tagged human Plk4 kinase domain (aa 2-275); 6xHis; made in house; host or cells: E. coli
T1 sequence (O00444 2-275): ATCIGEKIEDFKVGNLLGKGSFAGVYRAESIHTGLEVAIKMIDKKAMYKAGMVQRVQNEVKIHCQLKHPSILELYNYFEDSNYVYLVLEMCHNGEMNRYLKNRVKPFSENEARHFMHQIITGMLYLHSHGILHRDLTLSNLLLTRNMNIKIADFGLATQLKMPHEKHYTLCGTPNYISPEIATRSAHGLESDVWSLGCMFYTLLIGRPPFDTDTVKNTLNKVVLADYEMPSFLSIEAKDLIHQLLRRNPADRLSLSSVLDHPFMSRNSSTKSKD
Assay: Plk4 kinase assay (ADP-Glo)
Format: biochemical
Conditions: Table 1
Summary of the method: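 Enzyme at 2.5-10 nM final, pH 8.0, reacted 4-16 hours at 25° C; ADP generation read by ADP-Glo luminescence. Ki derived from IC50 by Cheng-Prusoff or, for tight binders, Copeland formalism.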

| SMILES | IC50 [nM] |
| --- | --- |
| Cc1cc(Nc2cc(C)[nH]n2)nc(Sc2ccc(NC(=O)C3CC3)cc2)n1 | < 1000 |
| Cc1cc(Nc2nc(Sc3ccc(NC(=O)C4CC4)cc3)nc(Cl)c2C)n[nH]1 | < 1000 |
| Cc1cc(Nc2nc(Sc3ccc(NC(=O)C4CC4)cc3)nc(N(C)CCN(C)C)c2C)n[nH]1 | < 1000 |
| Cc1cc(Nc2nc(Sc3ccc(NC(=O)C4CC4)cc3)nc(NCCN(C)C)c2C)n[nH]1 | < 1000 |
| CNCCN(C)c1nc(Sc2ccc(NC(=O)C3CC3)cc2)nc(Nc2cc(C)[nH]n2)c1C | < 1000 |
| COCCN(C)c1nc(Sc2ccc(NC(=O)C3CC3)cc2)nc(Nc2cc(C)[nH]n2)c1C | < 1000 |
| Cc1cc(Nc2nc(Sc3ccc(NC(=O)C4CC4)cc3)nc(-n3ccnc3)c2C)n[nH]1 | 100 to 1000 |
| CCc1cc(Nc2nc(Sc3ccc(NC(=O)C4CC4)cc3)nc(N3CCN(C)CC3)c2C)n[nH]1 | > 1000 |
| COc1c(Nc2cc(C)[nH]n2)nc(Sc2ccc(NC(=O)C3CC3)cc2)nc1N1CCOCC1 | < 1000 |
| COc1c(Nc2cc(C)[nH]n2)nc(Sc2ccc(NC(C)=O)cc2)nc1N1CC=C(F)CC1 | < 1000 |
| COc1c(Nc2cc(C)[nH]n2)nc(Sc2ccc(NC(C)=O)cc2)nc1N1CCC(C(C)=O)CC1 | < 1000 |
| COc1c(Nc2cc(C)[nH]n2)nc(Sc2ccc(NC(C)=O)cc2)nc1N1CCC(N)CC1 | < 1000 |
| COc1c(Nc2cc(C)[nH]n2)nc(Sc2ccc(NC(C)=O)cc2)nc1N1CCC(N(C)C)CC1 | < 1000 |
| CC(=O)Nc1ccc(Sc2nc(Nc3cc(C)[nH]n3)c(C)c(N3CCC(CCN(C)C)CC3)n2)cc1 | < 1000 |
| COc1c(Nc2cc(C)[nH]n2)nc(Sc2ccc(NC(C)=O)cc2)nc1N1CCCCC1C (centres unmarked) | 100 to 1000 |
| CCN1CCN(c2nc(Sc3ccc(NC(C)=O)cc3)nc(Nc3cc(C)[nH]n3)c2OC)CC1 | < 1000 |
| COc1c(Nc2cc(C)[nH]n2)nc(Sc2ccc(NC(C)=O)cc2)nc1N1CCN(C(=O)C(C)C)CC1 | < 1000 |
| CCC(=O)N1CCN(c2nc(Sc3ccc(NC(C)=O)cc3)nc(Nc3cc(C)[nH]n3)c2OC)CC1 | < 1000 |
| COc1c(Nc2cc(C)[nH]n2)nc(Sc2ccc(S(=O)(=O)Cc3ccccc3)cc2)nc1N1CCN(C2CCN(C)CC2)CC1 | < 1000 |
| COc1c(Nc2cc(C)[nH]n2)nc(Sc2ccc(S(=O)(=O)Cc3ccccc3)cc2)nc1N1CCC(N2CCN(C)CC2)CC1 | < 1000 |
| CSc1nc(Nc2cc(C)[nH]n2)c(C)c(N2CCC(O)CC2)n1 | < 1000 |

| SMILES | IC50 [nM] |
| --- | --- |
| CSc1nc(Nc2cc(C)[nH]n2)c(C)c(N2CCOCC2)n1 | < 1000 |
| CC(=O)Nc1ccc(Sc2nc(Nc3cc(C)[nH]n3)c(C)c(N3CCN(C(C)C)CC3)n2)cc1 | < 1000 |
| CC(=O)Nc1ccc(Sc2nc(Nc3cc(C)[nH]n3)c(C)c(N3CCN(C(=O)C(C)C)CC3)n2)cc1 | < 1000 |
| CCC(=O)N1CCN(c2nc(Sc3ccc(NC(C)=O)cc3)nc(Nc3cc(C)[nH]n3)c2C)CC1 | < 1000 |
| CNCC(=O)N1CCN(c2nc(Sc3ccc(NC(C)=O)cc3)nc(Nc3cc(C)[nH]n3)c2C)CC1 | < 1000 |
| CC(=O)Nc1ccc(Sc2nc(Nc3cc(C)[nH]n3)c(C)c(N3CCN(C(=O)CN(C)C)CC3)n2)cc1 | < 1000 |
| CNC1CCN(c2nc(Sc3ccc(NC(C)=O)cc3)nc(Nc3cc(C)[nH]n3)c2C)CC1 | < 1000 |
| CC(=O)Nc1ccc(Sc2nc(Nc3cc(C)[nH]n3)c(C)c(N3CCC(C(C)=O)CC3)n2)cc1 | < 1000 |
| COc1c(Nc2cc(C)[nH]n2)nc(Sc2ccc(NC(C)=O)cc2)nc1N1CCN(C(C)C)CC1 | < 1000 |
| CNCC(=O)N1CCN(c2nc(Sc3ccc(NC(C)=O)cc3)nc(Nc3cc(C)[nH]n3)c2OC)CC1 | < 1000 |
| COc1c(Nc2cc(C)[nH]n2)nc(Sc2ccc(NC(C)=O)cc2)nc1N1CCN(C(=O)CN(C)C)CC1 | < 1000 |
| Cc1cc(Nc2nc(Sc3ccccc3)nc(N(C)C(C)C)c2C)n[nH]1 | < 1000 |
| CNC(=O)Nc1ccc(Sc2nc(Nc3cc(C)[nH]n3)c(C)c(N3CCC(O)CC3)n2)cc1 | < 1000 |
| CNC(=O)Nc1ccc(Sc2nc(Nc3cc(C)[nH]n3)c(C)c(N3CCOCC3)n2)cc1 | < 1000 |
| Cc1cc(Nc2nc(Sc3ccccc3)nc(N3CCC(O)CC3)c2C)n[nH]1 | < 1000 |
| COc1c(Nc2cc(C)[nH]n2)nc(Sc2ccc(S(=O)(=O)Cc3ccccc3)cc2)nc1N1CCN(CCN2CCCC2)CC1 | < 1000 |
| Cc1cc(Nc2nc(Sc3ccccc3)nc(N3CCOCC3)c2C)n[nH]1 | < 1000 |
| CC(=O)Nc1ccc(Sc2nc(Nc3cc(C)[nH]n3)c(C)c(N3CCC(N)CC3)n2)cc1 | < 1000 |
| CC(=O)Nc1ccc(Sc2nc(Nc3cc(C)[nH]n3)c(C)c(N3CCC(N(C)C)CC3)n2)cc1 | < 1000 |
| CC(=O)Nc1ccc(Sc2nc(Nc3cc(C)[nH]n3)c(C)c(N3CCC(C)(O)CC3)n2)cc1 | < 1000 |
| CCN(CC)c1nc(Sc2ccc(NC(C)=O)cc2)nc(Nc2cc(C)[nH]n2)c1C | < 1000 |

| SMILES | IC50 [nM] |
| --- | --- |
| Cc1cc(Nc2nc(Sc3ccc(N)cc3)nc(N3CCC(O)CC3)c2C)n[nH]1 | < 1000 |
| Cc1cc(Nc2nc(Sc3ccc(N)cc3)nc(N3CCOCC3)c2C)n[nH]1 | < 1000 |
| COCC(=O)N1CCN(c2nc(Sc3ccccc3)nc(Nc3cc(C)[nH]n3)c2C)CC1 | < 1000 |
| CSc1nc(Nc2cc(C)[nH]n2)c(C)c(N(C)C(C)C)n1 | < 1000 |
| COc1c(Nc2cc(C)[nH]n2)nc(Sc2ccc(NC(C)=O)cc2)nc1N1CCC(CCN(C)C)CC1 | < 1000 |
| CNC(=O)Nc1ccc(Sc2nc(Nc3cc(C)[nH]n3)c(C)c(N(C)C(C)C)n2)cc1 | < 1000 |
| CNC(=O)Nc1ccc(Sc2nc(Nc3cc(C)[nH]n3)c(C)c(N3CCN(C(=O)COC)CC3)n2)cc1 | < 1000 |
| Cc1cc(Nc2nc(Sc3ccc(N)cc3)nc(N(C)C(C)C)c2C)n[nH]1 | < 1000 |
| COCC(=O)N1CCN(c2nc(Sc3ccc(N)cc3)nc(Nc3cc(C)[nH]n3)c2C)CC1 | < 1000 |
| Cc1ccc(Sc2nc(Nc3cc(C)[nH]n3)c(C)c(N3CCC(O)CC3)n2)cc1 | < 1000 |
| Cc1ccc(Sc2nc(Nc3cc(C)[nH]n3)c(C)c(N3CCOCC3)n2)cc1 | < 1000 |
| COCC(=O)N1CCN(c2nc(Sc3ccc(C)cc3)nc(Nc3cc(C)[nH]n3)c2C)CC1 | < 1000 |
| COc1c(Nc2cc(C)[nH]n2)nc(Sc2ccc(S(=O)(=O)Cc3ccccc3)cc2)nc1N1CCN(CCN2CCCCC2)CC1 | < 1000 |
| COc1c(Nc2cc(C)[nH]n2)nc(Sc2ccc(S(=O)(=O)Cc3ccccc3)cc2)nc1N1CCN(CCN2C(C)CCCC2C)CC1 (centres unmarked) | < 1000 |
| COc1c(Nc2cc(C)[nH]n2)nc(Sc2ccc(S(=O)(=O)Cc3ccccc3)cc2)nc1N1CCN(CCN2CCC(O)CC2)CC1 | < 1000 |
| CC(=O)Nc1ccc(Sc2nc(Nc3cc(C)[nH]n3)c(Cl)c(N3CCC(O)CC3)n2)cc1 | < 1000 |
| CC(=O)Nc1ccc(Sc2nc(N3CCC(O)CC3)nc(Nc3cc(C)[nH]n3)c2Cl)cc1 | < 1000 |
| CCN(c1nc(Sc2ccc(NC(C)=O)cc2)nc(Nc2cc(C)[nH]n2)c1C)C(C)C | < 1000 |
| CC(=O)Nc1ccc(Sc2nc(Nc3cc(C)[nH]n3)c(C)c(N(CCO)C(C)C)n2)cc1 | < 1000 |
| CC(=O)Nc1ccc(Sc2nc(Nc3cc(C)[nH]n3)c(C)c(N3CCN(CCN4CCCCC4)CC3)n2)cc1 | < 1000 |
| CCOc1c(Nc2cc(C)[nH]n2)nc(Sc2ccc(NC(C)=O)cc2)nc1N1CCC(O)CC1 | < 1000 |

| SMILES | IC50 [nM] |
| --- | --- |
| Cc1ccc(Sc2nc(Nc3cc(C)[nH]n3)c(C)c(N(C)C(C)C)n2)cc1 | < 1000 |
| COCC(=O)N1CCN(c2nc(SC)nc(Nc3cc(C)[nH]n3)c2C)CC1 | < 1000 |
| CCOc1c(Nc2cc(C)[nH]n2)nc(SC)nc1N1CCC(O)CC1 | 100 to 1000 |
| CCOc1c(Nc2cc(C)[nH]n2)nc(SC)nc1N1CCCCC1 | 100 to 1000 |
| CCOc1c(Nc2cc(C)[nH]n2)nc(SC)nc1N1CCN(C)CC1 | 100 to 1000 |
| CCOc1c(Nc2cc(C)[nH]n2)nc(SC)nc1N1CCN(CCN(C)C)CC1 | 100 to 1000 |
| Cc1cc(Nc2nc(Sc3ccc(NC(=O)C4CC4)cc3)nc(N3CCC(O)CC3)c2C)n[nH]1 | < 1000 |
| COc1c(Nc2cc(C)[nH]n2)nc(Sc2ccc(NC(=O)C3CC3)cc2)nc1N1CCC(O)CC1 | < 1000 |
| CC(=O)Nc1ccc(Sc2nc(Nc3cc(C)[nH]n3)c(C)c(N3C4CCC3CC(O)C4)n2)cc1 (centres unmarked) | < 1000 |
| COc1c(Nc2cc(C)[nH]n2)nc(Sc2ccc(NC(C)=O)cc2)nc1N1C2CCC1CC(O)C2 (centres unmarked) | < 1000 |
| COc1c(Nc2cc(C)[nH]n2)nc(Sc2ccc(S(=O)(=O)Cc3ccccc3)cc2)nc1N1CCO[C@H](C)C1 | < 1000 |
| COc1c(Nc2cc(C)[nH]n2)nc(Sc2ccc(S(=O)(=O)Cc3ccccc3)cc2)nc1N1CCN(C2CCN(Cc3ccccc3)CC2)CC1 | < 1000 |
| COc1c(Nc2cc(C)[nH]n2)nc(Sc2ccc(S(=O)(=O)Cc3ccccc3)cc2)nc1N1CCO[C@@H](C)C1 | < 1000 |
| COc1c(Nc2cc(C)[nH]n2)nc(Sc2ccc(S(=O)(=O)Cc3ccccc3)cc2)nc1N1CC2CCC(C1)O2 | < 1000 |
| COc1cccc(CS(=O)(=O)c2ccc(Sc3nc(Nc4cc(C)[nH]n4)c(OC)c(N4CCN(CCN(C)Cc5ccccc5)CC4)n3)cc2)c1 | < 1000 |
| COc1c(Nc2cc(C)[nH]n2)nc(Sc2ccc(S(=O)(=O)Cc3ccccc3C)cc2)nc1N1CCN(CCN(C)C)CC1 | < 1000 |
| COc1c(Nc2cc(C)[nH]n2)nc(Sc2ccc(S(=O)(=O)Cc3ccccc3)cc2)nc1N1CCOC[C@H]1C | < 1000 |
| COc1c(Nc2cc(C)[nH]n2)nc(Sc2ccc(S(=O)(=O)Cc3ccccc3)cc2)nc1N1CCOC[C@@H]1C | < 1000 |
| COc1c(Nc2cc(C)[nH]n2)nc(Sc2ccc(S(=O)(=O)Cc3cccc(F)c3)cc2)nc1N1CCN(CCN(C)C)CC1 | < 1000 |
| COc1c(Nc2cc(C)[nH]n2)nc(Sc2ccc(S(=O)(=O)Cc3cccc([N+](=O)[O-])c3F)cc2)nc1N1CCN(CCN(C)C)CC1 | < 1000 |
